Measured values published in US5783703A, “Sulfur-containing compounds method for their use and prodction” (Lederle (Japan), Ltd., priority 1993, dated 1998).
Converted amounts (≈) assume the structure as drawn. Read-outs that look alike come from different tables or passages of the source.

Key:
S. epidermidis = assay: Antibacterial activities against clinically isolated microorganism; format: cell-based; conditions: Staphylococcus epidermidis, 23 strains clinically isolated in Japan
Procedure: (§1) The following strains clinically isolated freshly in Japan were used in this test.
(§2) 2. The test was carried out by the agar plate dilution method in accordance with the standard method of The Japanese Chemotherapy Society. The minimum inhibitory concentration (MIC) was determined in substantially the same manner as the test procedures described in Test I.

K. pneumoniae = assay: as above; format: cell-based; conditions: Klebsiella pneumoniae, 23 strains clinically isolated in Japan
Procedure: as §1, §2

E. faecalis = assay: as above; format: cell-based; conditions: Enterococcus faecalis, read-out: MIC50 against clinically isolated microorganism
Procedure: as §1, §2

E. cloacae = assay: as above; format: cell-based; conditions: Enterobacter cloacae, 14 strains clinically isolated in Japan
Procedure: as §1, §2

MRSA = assay: as above; format: cell-based; conditions: Staphylococcus aureus, read-out: MIC50 against clinically isolated microorganism
Procedure: as §1, §2

S. marcescens = assay: as above; format: cell-based; conditions: Serratia marcescens, 27 strains clinically isolated in Japan
Procedure: as §1
S. marcescens 27 strains
as §2

S. enteritidis G14 = assay: Antibacterial test, agar plate dilution method (MIC), standard strains; format: cell-based; conditions: Salmonella enterica, MH agar, 37° C., 18 hours
Procedure: (§3) The antibacterial activities were tested by an agar plate dilution method in accordance with the standard method of The Japanese Chemotherapy Society [Chemotherapy, Vol. 29, 76-79 (1981)].
(§4) A Mueller-Hinton (MH) agar liquid medium of a test microorganism was cultured overnight at 37° C. and the resultant culture medium was diluted with a buffered saline gelatin (BSG) solution to contain approximately 10^6 cells of the test microorganisms per milliliter, and then the diluted solution was inoculated with a microplanter at the rate of approximately 5 microliters on a MH agar medium containing a test compound. This medium was then incubated at 37° C. for 18 hours. The minimum inhibitory concentration (MIC) is determined as a minimum concentration in which no test microorganism could grow. It is noted here that the test organisms used were all standard strains.

S. paratyphi 1015 = assay: as above; format: cell-based; conditions: Salmonella enterica, 18 h
Procedure: as §3, §4

S. schottmuelleri 8006 = assay: as above; format: cell-based; conditions: MH agar, 37° C., 18 hours
Procedure: as §3, §4

S. pyogenes Cook = assay: as above; format: cell-based; conditions: Streptococcus pyogenes, MH agar, 37° C., 18 hours
Procedure: as §3, §4

E. coli K-12 C600 = assay: as above; format: cell-based; conditions: Escherichia coli, K12C600, MH agar, 37° C., 18 hours
Procedure: as §3, §4

S. typhi 901 = assay: as above; format: cell-based; conditions: Salmonella enterica, 18 h
Procedure: as §3, §4

K. pneumoniae PCI-602 = assay: as above; format: cell-based; conditions: Klebsiella pneumoniae, PCI602, MH agar, 37° C., 18 hours
Procedure: as §3, §4

E. aerogenes ATCC 13048 = assay: as above; format: cell-based; conditions: Klebsiella aerogenes, ATCC13048, MH agar, 37° C., 18 hours
Procedure: as §3, §4

P. vulgaris HX-19 = assay: as above; format: cell-based; conditions: Proteus vulgaris, HX19, MH agar, 37° C., 18 hours
Procedure: as §3, §4

E. coli NIHJ JC-2 = assay: as above; format: cell-based; conditions: Escherichia coli, NIHJJC2, MH agar, 37° C., 18 hours
Procedure: as §3, §4

M. luteus ATCC 9341 = assay: as above; format: cell-based; conditions: Micrococcus luteus, ATCC9341, MH agar, 37° C., 18 hours
Procedure: as §3, §4

P. vulgaris OX-19 = assay: as above; format: cell-based; conditions: Proteus vulgaris, OX19, MH agar, 37° C., 18 hours
Procedure: as §3, §4

P. rettgeri IFO 3850 = assay: as above; format: cell-based; conditions: Providencia rettgeri, IFO3850, MH agar, 37° C., 18 hours
Procedure: as §3, §4

B. subtilis ATCC 6633 = assay: as above; format: cell-based; conditions: Bacillus subtilis, ATCC6633, MH agar, 37° C., 18 hours
Procedure: as §3, §4

P. mirabilis IFO 3849 = assay: as above; format: cell-based; conditions: Proteus mirabilis, IFO3849, MH agar, 37° C., 18 hours
Procedure: as §3, §4

E. cloacae 963 = assay: as above; format: cell-based; conditions: Enterobacter cloacae, MH agar, 37° C., 18 hours
Procedure: as §3, §4

S. aureus Terajima = assay: as above; format: cell-based; conditions: Staphylococcus aureus, MH agar, 37° C., 18 hours
Procedure: as §3, §4

S. marcescens IAM 1184 = assay: as above; format: cell-based; conditions: Serratia marcescens, IAM1184, MH agar, 37° C., 18 hours
Procedure: as §3, §4

M. morganii IFO 3848 = assay: as above; format: cell-based; conditions: Morganella morganii, IFO3848, MH agar, 37° C., 18 hours
Procedure: as §3, §4

S. aureus FDA209P JC-1 = assay: as above; format: cell-based; conditions: Staphylococcus aureus, MH agar, 37° C., 18 hours
Procedure: as §3, §4

S. aureus MS353 = assay: as above; format: cell-based; conditions: Staphylococcus aureus, MH agar, 37° C., 18 hours
Procedure: as §3, §4

S. typhimurium 11D971 = assay: as above; format: cell-based; conditions: Salmonella enterica, MH agar, 37° C., 18 hours
Procedure: as §3, §4

[1] = In situ absorption from rat intestinal loop; format: in vivo, rats of Wistar strain; conditions: rat jejunal loop, 20 mg/kg
Procedure: 7-week-old male rats of Wistar strain were used after fasting overnight. After anesthetizing the animals with ether, the intestine was exteriorized and an acute loop of 30 cm length was prepared from the upper part of jejunum by ligature of both ends. 0.2% physiological saline solutions of the test compounds were injected at a dose of 20 mg/kg into the loop with a syringe, and the loop was returned. About 0.4 ml blood was taken from the vena jugularis at 10, 30, 60 and 120 minutes after dosing.

[2] = Oral absorption study in mice; format: in vivo, mice of ddY strain; conditions: 100 mg/kg
Procedure: 5-week-old male mice of ddY strain were used after fasting overnight. The test compounds in 1% physiological saline solution at a dose of 100 mg/kg were administered orally to a group of 2 mice. Blood was taken from the vena jugularis at 15, 30, 60 and 120 minutes after dosing.

[3] = Storage stability of the crystal at room temperature; format: physicochemical; conditions: dehumidified state, one month
Text: The 3-mercapto-1-(1,3-thiazolin-2-yl)azetidine hydrochloride (8) in the form of crystal obtained in the above Example 6 was left still in dehumidified state at a room temperature for one month.

[4] = plasma, for (32) and (33) shown as Compound (28)
[5] = 28 strains clinically isolated in Japan
[6] = mouse, plasma, for (32) and (33) shown as Compound (28)
[7] = only deesterified Compound (28) detected

Row | Structure (SMILES) | MIC50 (S. epidermidis) [µg/mL] | MIC50 (K. pneumoniae) [µg/mL] | MIC50 (E. faecalis) [µg/mL] | MIC50 (E. cloacae) [µg/mL] | MIC50 (S. marcescens) [µg/mL] | MIC (S. enteritidis G14) [µg/mL] | MIC (S. paratyphi 1015) [µg/mL] | MIC (S. schottmuelleri 8006) [µg/mL] | MIC (S. pyogenes Cook) [µg/mL] | MIC (E. coli K-12 C600) [µg/mL] | MIC (S. typhi 901) [µg/mL] | MIC (K. pneumoniae PCI-602) [µg/mL] | MIC (E. aerogenes ATCC 13048) [µg/mL] | MIC (P. vulgaris HX-19) [µg/mL] | MIC (E. coli NIHJ JC-2) [µg/mL] | MIC (M. luteus ATCC 9341) [µg/mL] | MIC (P. vulgaris OX-19) [µg/mL] | MIC (P. rettgeri IFO 3850) [µg/mL] | MIC (B. subtilis ATCC 6633) [µg/mL] | MIC (P. mirabilis IFO 3849) [µg/mL] | further results
1 | CC(C)(O/N=C(\C(=O)N[C@@H]1C(=O)N2C(C(=O)[O-])=C(C[n+]3ccccc3)CS[C@H]12)c1csc(N)n1)C(=O)O [CAZ, ceftazidime] | 12.5 (≈ 22.9 µM) | 0.2 (≈ 0.366 µM) | 25 (≈ 45.7 µM) | 1.56 (≈ 2.85 µM) | 0.39 (≈ 0.714 µM) |  |  |  |  |  |  |  |  |  |  |  |  |  |  |  | MIC50 (MRSA): 100 µg/mL (≈ 183 µM)
2 | C[C@@H](O)[C@H]1C(=O)N2C(C(=O)O)=C(SC3CN(C4=NCCS4)C3)[C@H](C)[C@H]12 [Compound (28), (1R,5S,6S)-2-[1-(thiazolin-2-yl)azetidin-3-yl]thio-6-[(R)-1-hydroxyethyl]-1-methyl-carbapen-2-em-3-carboxylic acid] | 0.39 (≈ 1.02 µM) | 0.025 (≈ 0.0652 µM) | 0.39 (≈ 1.02 µM) | 0.1 (≈ 0.261 µM) | 0.2 (≈ 0.522 µM) | 0.39 (≈ 1.02 µM) | 0.05 (≈ 0.13 µM) | 0.025 (≈ 0.0652 µM) | ≤ 0.006 | 0.1 (≈ 0.261 µM) | ≤ 0.006 | 0.013 (≈ 0.0339 µM) | 0.1 (≈ 0.261 µM) | 0.1 (≈ 0.261 µM) | 0.013 (≈ 0.0339 µM) | 0.2 (≈ 0.522 µM) | 0.1 (≈ 0.261 µM) | 0.39 (≈ 1.02 µM) | 0.025 (≈ 0.0652 µM) | 0.39 (≈ 1.02 µM) | MIC (E. cloacae 963): 0.05 µg/mL (≈ 0.13 µM); MIC (S. aureus Terajima): ≤ 0.006 µg/mL; MIC (S. marcescens IAM 1184): 0.05 µg/mL (≈ 0.13 µM); MIC (M. morganii IFO 3848): 0.39 µg/mL (≈ 1.02 µM); MIC (S. aureus FDA209P JC-1): 0.013 µg/mL (≈ 0.0339 µM); MIC (S. aureus MS353): ≤ 0.006 µg/mL; MIC (S. typhimurium 11D971): 0.025 µg/mL (≈ 0.0652 µM); AUC(0-t) at 2 h [1, 4]: 1000 ng·h/mL; Cmax [1, 4]: 800 ng/mL; MIC50 (MRSA; [5]): 0.78 µg/mL (≈ 2.03 µM); AUC(0-t) at 2 h [2, 6]: 5000 ng·h/mL; Cmax [2, 6]: 3500 ng/mL
3 | COCOC[C@@H]1CSC(N2CC(SC3=C(C(=O)O)N4C(=O)[C@H]([C@@H](C)O)[C@H]4[C@H]3C)C2)=N1 [Compound (31), (1R,5S,6S)-2-[1-((4R)-methoxymethyloxymethyl-1,3-thiazolin-2-yl)azetidin-3-yl]thio-6-[(R)-1-hydroxyethyl]-1-methyl-carbapen-2-em-3-carboxylic acid] |  |  |  |  |  | 0.2 (≈ 0.437 µM) | 0.05 (≈ 0.109 µM) | 0.2 (≈ 0.437 µM) | ≤ 0.006 | 0.2 (≈ 0.437 µM) | 0.05 (≈ 0.109 µM) | 0.013 (≈ 0.0284 µM) | 0.39 (≈ 0.852 µM) | 0.39 (≈ 0.852 µM) | 0.05 (≈ 0.109 µM) | 0.2 (≈ 0.437 µM) | 0.1 (≈ 0.219 µM) | 6.25 (≈ 13.7 µM) | 0.025 (≈ 0.0546 µM) | 0.78 (≈ 1.7 µM) | MIC (E. cloacae 963): 0.2 µg/mL (≈ 0.437 µM); MIC (S. aureus Terajima): ≤ 0.006 µg/mL; MIC (S. marcescens IAM 1184): 0.39 µg/mL (≈ 0.852 µM); MIC (M. morganii IFO 3848): 0.2 µg/mL (≈ 0.437 µM); MIC (S. aureus FDA209P JC-1): 0.05 µg/mL (≈ 0.109 µM); MIC (S. aureus MS353): 0.025 µg/mL (≈ 0.0546 µM); MIC (S. typhimurium 11D971): 0.1 µg/mL (≈ 0.219 µM)
4 | CC(OC(=O)OC1CCCCC1)OC(=O)C1=C(SC2CN(C3=NCCS3)C2)[C@H](C)[C@@H]2[C@@H]([C@@H](C)O)C(=O)N12 (stereo partly drawn) [Compound (33), 1-[(cyclohexyloxy)carbonyloxy] ethyl (1R,5S,6S)-2-[1-(1,3-thiazolin-2-yl)azetidin-3-yl]thio-6-[(R)-1-hydroxyethyl]-1-methylcarbapen-2-em-3-carboxylate] |  |  |  |  |  |  |  |  |  |  |  |  |  |  |  |  |  |  |  |  | plasma level of the administered ester itself [1, 7]: undetectable; plasma level of the administered ester itself [2, 7]: undetectable
5 | C[C@@H](O)[C@H]1C(=O)N2C(C(=O)O)=C(SCCN=CN)C[C@H]12 [Imipenem, imipenem] | 0.2 (≈ 0.668 µM) | 0.2 (≈ 0.668 µM) | 0.78 (≈ 2.61 µM) | 0.2 (≈ 0.668 µM) | 1.56 (≈ 5.21 µM) |  |  |  |  |  |  |  |  |  |  |  |  |  |  |  | MIC50 (MRSA; [5]): 3.13 µg/mL (≈ 10.5 µM)
6 | Cl.SC1CN(C2=NCCS2)C1 [compound (8), 3-mercapto-1-(1,3-thiazolin-2-yl)azetidine hydrochloride] |  |  |  |  |  |  |  |  |  |  |  |  |  |  |  |  |  |  |  |  | purity after storage (storage stability) [3]: did not change at all
